Patent US10336702B2, “Pharmaceutically active compounds” (BERGENBIO ASA, priority 2015, dated 2019)

How the values were obtained:
Akt1 = biological target: T1, Akt1 (Homo sapiens, UniProt P31749); assay: Akt activation assay (PDK1-mediated activation, LANCE Ultra crosstide TR-FRET), Akt1; format: biochemical; details: read-out: Biological Assay 1 IC50 (nM) Akt1
T1 construct: unspecified tag, removed (detagged) (cleaved yes); purchased SignalChem and Proteros (Akt1); Merck Millipore (PDK1) 14-452 (PDK1); none given for Akt1
T1 sequence (P31749 whole entry): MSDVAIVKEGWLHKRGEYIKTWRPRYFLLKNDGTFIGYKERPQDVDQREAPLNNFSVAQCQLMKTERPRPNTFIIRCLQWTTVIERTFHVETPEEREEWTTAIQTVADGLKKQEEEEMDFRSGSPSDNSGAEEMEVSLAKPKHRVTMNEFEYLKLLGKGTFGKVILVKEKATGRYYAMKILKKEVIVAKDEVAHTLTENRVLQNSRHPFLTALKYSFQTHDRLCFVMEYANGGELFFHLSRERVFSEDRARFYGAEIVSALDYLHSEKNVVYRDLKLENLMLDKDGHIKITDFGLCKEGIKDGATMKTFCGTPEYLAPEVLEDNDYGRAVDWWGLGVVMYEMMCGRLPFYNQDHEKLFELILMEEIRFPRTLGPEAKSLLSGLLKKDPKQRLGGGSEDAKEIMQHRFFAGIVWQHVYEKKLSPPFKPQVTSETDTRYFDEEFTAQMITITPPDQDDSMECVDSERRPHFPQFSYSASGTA
In short: (§1)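 TR-FRET read-out (665/615 nm ratio) after Eu-anti-phospho-crosstide antibody, 1 h. Reaction: compound preincubated with Akt isoform, then 5 nM PDK1, lipid vesicles with 0.55 μM PtdIns(3,4,5)P3, 100 μM ATP, 100 nM crosstide, 30 min, EDTA stop. IC50 from 4-parameter equation.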

Akt2 = biological target: T2, Akt2 (Homo sapiens, UniProt P31751); assay: Akt activation assay (PDK1-mediated activation, LANCE Ultra crosstide TR-FRET), Akt2; format: biochemical; details: read-out: Biological Assay 1 IC50 (nM) Akt2
T2 construct: unspecified tag, removed (detagged) (cleaved yes); purchased SignalChem and Proteros (Akt2); Merck Millipore (PDK1) 14-452 (PDK1); none given for Akt2
T2 sequence (P31751 whole entry): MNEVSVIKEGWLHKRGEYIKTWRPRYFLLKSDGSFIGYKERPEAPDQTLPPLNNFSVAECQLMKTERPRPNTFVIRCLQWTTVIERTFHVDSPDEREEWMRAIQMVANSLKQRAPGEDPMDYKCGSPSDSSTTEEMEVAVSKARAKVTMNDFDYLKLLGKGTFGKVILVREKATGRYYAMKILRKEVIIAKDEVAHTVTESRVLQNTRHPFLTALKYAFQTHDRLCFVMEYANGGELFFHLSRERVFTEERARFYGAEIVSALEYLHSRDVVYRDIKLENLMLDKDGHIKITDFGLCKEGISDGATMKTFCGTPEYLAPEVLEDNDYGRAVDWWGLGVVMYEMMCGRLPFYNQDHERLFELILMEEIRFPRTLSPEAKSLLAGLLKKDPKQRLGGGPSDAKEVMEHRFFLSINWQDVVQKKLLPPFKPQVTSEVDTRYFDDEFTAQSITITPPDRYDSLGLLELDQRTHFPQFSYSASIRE
In short: as §1

Akt3 = biological target: T3, Akt3 (Homo sapiens, UniProt Q9Y243); assay: Akt activation assay (PDK1-mediated activation, LANCE Ultra crosstide TR-FRET), Akt3; format: biochemical; details: read-out: Biological Assay 1 IC50 (nM) Akt3
T3 construct: unspecified tag, removed (detagged) (cleaved yes); purchased SignalChem and Proteros (Akt3); Merck Millipore (PDK1) 14-452 (PDK1); none given for Akt3
T3 sequence (Q9Y243 whole entry): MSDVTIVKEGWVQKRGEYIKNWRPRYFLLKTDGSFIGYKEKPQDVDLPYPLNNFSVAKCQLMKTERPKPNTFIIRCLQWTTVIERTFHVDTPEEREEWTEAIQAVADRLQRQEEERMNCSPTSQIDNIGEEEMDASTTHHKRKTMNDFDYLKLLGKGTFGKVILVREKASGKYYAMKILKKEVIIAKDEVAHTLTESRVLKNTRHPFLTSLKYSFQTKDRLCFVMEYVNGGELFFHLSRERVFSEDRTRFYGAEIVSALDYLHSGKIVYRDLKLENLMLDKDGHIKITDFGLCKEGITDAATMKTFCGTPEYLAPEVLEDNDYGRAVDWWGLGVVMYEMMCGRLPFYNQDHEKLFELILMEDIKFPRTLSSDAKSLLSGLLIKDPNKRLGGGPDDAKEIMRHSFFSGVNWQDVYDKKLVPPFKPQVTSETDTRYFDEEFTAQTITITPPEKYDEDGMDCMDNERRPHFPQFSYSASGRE
In short: as §1

p-Akt1 in LNCaP cells = biological target: T4, p-Akt1 in LNCaP cells (Homo sapiens, UniProt P31749); assay: Phospho-Akt cellular SureFire assay, p-Akt1 in LNCaP cells; format: cell-based; details: read-out: Biological Assay 2 IC50 (nM) Akt1 LNCaP
T4 construct: SureFire assays to detect cellular p-Akt1, p-Akt2 and p-Akt3 levels in WM115 cells (Akt2/3) and LNCaP cells (Akt1); endogenous in cells; host or cells: LNCaP (ECACC 89110211)
T4 sequence (P31749 whole entry): as the sequence (P31749 whole entry) above
In short: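 Phospho-Thr308 Akt1 detected by AlphaScreen SureFire proximity beads in LNCaP lysates after 15 min compound treatment at 37 °C in 0.1% FBS medium, unstimulated, 0.3% DMSO. Cells plated at 5×10^4/well overnight; IC50 from a 4-parameter equation.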

p-Akt2 in WM115 cells = biological target: T5, p-Akt2 in WM115 cells (Homo sapiens, UniProt P31751); assay: Phospho-Akt cellular SureFire assay, p-Akt2 in WM115 cells; format: cell-based; details: insulin stimulated, read-out: Biological Assay 2 IC50 (nM) Akt2 WM115
T5 construct: SureFire assays to detect cellular p-Akt1, p-Akt2 and p-Akt3 levels in WM115 cells (Akt2/3) and LNCaP cells (Akt1); endogenous in cells; host or cells: WM115 (ECACC 91061232), insulin-stimulated
T5 sequence (P31751 whole entry): as the sequence (P31751 whole entry) above
In short: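 Readout is a bead-proximity SureFire assay pairing a pThr308 Akt antibody with a total Akt2 antibody, lysate and beads incubated 2 h plus 2 h at room temperature in the dark. Before lysis, serum-starved WM115 cells received 100 nM insulin (10 min), then test compound (15 min, 0.3% DMSO); IC50 by 4-parameter equation.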

p-Akt3 in WM115 cells = biological target: T6, p-Akt3 in WM115 cells (Homo sapiens, UniProt Q9Y243); assay: Phospho-Akt cellular SureFire assay, p-Akt3 in WM115 cells; format: cell-based; details: insulin stimulated, read-out: Biological Assay 2 IC50 (nM) Akt3 WM115
T6 construct: SureFire assays to detect cellular p-Akt1, p-Akt2 and p-Akt3 levels in WM115 cells (Akt2/3) and LNCaP cells (Akt1); endogenous in cells; host or cells: WM115 (ECACC 91061232), insulin-stimulated
T6 sequence (Q9Y243 whole entry): as the sequence (Q9Y243 whole entry) above
In short: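 pThr308-Akt3 in lysates was quantified by bead-proximity SureFire detection, pairing a phospho-specific antibody with a total Akt3 antibody. Before lysis, WM115 cells in 0.1% FBS medium were treated for 15 min at 37 °C with compound (final DMSO 0.3%), following a 10 min stimulation with 100 nM insulin. IC50 was obtained by 4-parameter fitting.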

| SMILES | IC50 (Akt1) [nM] | IC50 (Akt2) [nM] | IC50 (Akt3) [nM] | IC50 (p-Akt1 in LNCaP cells) [nM] | IC50 (p-Akt2 in WM115 cells) [nM] | IC50 (p-Akt3 in WM115 cells) [nM] |
| --- | --- | --- | --- | --- | --- | --- |
| CN(C(=O)C1CC1)[C@H]1CC[C@H](CC(=O)Nc2cc(-c3ccccc3)c(-c3ccc([C@]4(N)C[C@](C)(O)C4)cc3)nn2)CC1 [Example A78, N-(trans-4-(2-((6-(4-(trans-1-amino-3-hydroxy-3-methylcyclobutyl)phenyl)-5-phenylpyridazin-3-yl)amino)-2-oxoethyl)cyclohexyl)-N-methylcyclopropanecarboxamide] | 1900 | 71 | 4 | 1400 | 370 | 8 |
| NC1(c2ccc(-c3cnc(NC(=O)C[C@H]4CC[C@H](N5CCCC5=O)CC4)cc3-c3ccccc3)cc2)CCC1 [Example A71, N-(5-(4-(1-aminocyclobutyl)phenyl)-4-phenylpyridin-2-yl)-2-(trans-4-(2-oxopyrrolidin-1-yl)cyclohexyl)acetamide] | 7500 | 110 | 15 | 3400 | 1500 | 130 |
| COCC(=O)N(C)[C@H]1CC[C@H](CC(=O)Nc2cc(-c3ccccc3)c(-c3ccc([C@]4(N)C[C@](C)(O)C4)cc3)cn2)CC1 [Example 107, N-(trans-4-(2-((5-(4-(trans-1-amino-3-hydroxy-3-methylcyclobutyl)phenyl)-4-phenylpyridin-2-yl)amino)-2-oxoethyl)cyclohexyl)-2-methoxy-N-methylacetamide] | > 30000 | 94 | 9 | 7300 | 390 | 9 |
| CC(C)N(C(=O)C1CC1)[C@H]1CC[C@H](CC(=O)Nc2cc(-c3ccccc3)c(-c3ccc([C@]4(N)C[C@](C)(O)C4)cc3)nn2)CC1 [Example 105, N-(trans-4-(2-((6-(4-(trans-1-amino-3-hydroxy-3-methylcyclobutyl)phenyl)-5-phenylpyridazin-3-yl)amino)-2-oxoethyl)cyclohexyl)-N-isopropylcyclopropanecarboxamide] | 4600 | 210 | 8 | 5300 | 1400 | 26 |
| CC(=O)N(C)[C@H]1CC[C@H](CC(=O)Nc2cnc(-c3ccc(C(C)(C)N)cc3)c(-c3ccccc3F)c2)CC1 [Example 9, N-(6-(4-(2-aminopropan-2-yl)phenyl)-5-(2-fluorophenyl)pyridin-3-yl)-2-(trans-4-(N-methylacetamido)cyclohexyl)acetamide] | > 30000 | 2500 | 150 | > 30000 | 3500 | 110 |
| CC(C)(N)c1ccc(-c2ncc(NC(=O)C[C@H]3CC[C@H](C(=O)N4CCCC4)CC3)cc2-c2ccccc2)cc1 [Example A47, N-(6-(4-(2-aminopropan-2-yl)phenyl)-5-phenylpyridin-3-yl)-2-(trans-4-(pyrrolidine-1-carbonyl)cyclohexyl)acetamide] | > 30000 | 2100 | 370 | > 30000 | 11000 | 440 |
| COC(=O)N(C)[C@H]1CC[C@H](CC(=O)Nc2cc(-c3ccccc3)c(-c3ccc([C@]4(N)C[C@](C)(O)C4)cc3)cn2)CC1 [Example 67, Methyl (trans-4-(2-((5-(4-(trans-1-amino-3-hydroxy-3-methylcyclobutyl)phenyl)-4-phenylpyridin-2-yl)amino)-2-oxoethyl)cyclohexyl)(methyl)carbamate] | > 6500 | 180 | 8 | > 9300 | 1500 | 37 |
| CC(C)C(=O)N(C)[C@H]1CC[C@H](CC(=O)Nc2cc(-c3ccccc3)c(-c3ccc(C(C)(C)N)cc3)nn2)CC1 [Example A85, N-(trans-4-(2-((6-(4-(2-aminopropan-2-yl)phenyl)-5-phenylpyridazin-3-yl)amino)-2-oxoethyl)cyclohexyl)-N-methylisobutyramide] | > 30000 | 3400 | 74 | > 20000 | 8800 | 270 |
| CC(=O)N[C@H]1CC[C@H](CC(=O)Nc2cnc(-c3ccc(C4(N)CCC4)cc3)c(-c3ccccc3)c2)CC1 [Example A38, 2-(trans-4-acetamidocyclohexyl)-N-(6-(4-(1-aminocyclobutyl)phenyl)-5-phenylpyridin-3-yl)acetamide] | 10000 | 190 | 18 | > 5700 | 1600 | 120 |
| CC(C)(N)c1ccc(-c2nnc(NC(=O)C[C@H]3CC[C@H](N4CCOC4=O)CC3)cc2-c2ccccc2)cc1 [Example 65, N-(6-(4-(2-aminopropan-2-yl)phenyl)-5-phenylpyridazin-3-yl)-2-(trans-4-(2-oxooxazolidin-3-yl)cyclohexyl)acetamide] | > 30000 | 4100 | 61 | > 30000 | 6500 | 190 |

Now from value to molecule:

| IC50 (Akt1) [nM] | IC50 (Akt2) [nM] | IC50 (Akt3) [nM] | IC50 (p-Akt1 in LNCaP cells) [nM] | IC50 (p-Akt2 in WM115 cells) [nM] | IC50 (p-Akt3 in WM115 cells) [nM] | SMILES |
| --- | --- | --- | --- | --- | --- | --- |
| > 30000 | 500 | 33 | > 20000 | 3400 | 220 | NC1(c2ccc(-c3cnc(NC(=O)C[C@H]4CC[C@H](N5CCCC5=O)CC4)cc3-c3ccccc3)cc2)CC1 [Example A83, N-(5-(4-(1-aminocyclopropyl)phenyl)-4-phenylpyridin-2-yl)-2-(trans-4-(2-oxopyrrolidin-1-yl)cyclohexyl)acetamide] |
| > 30000 | 8900 | 200 | > 30000 | > 30000 | 830 | COC(=O)N(C)[C@H]1CC[C@H](CC(=O)Nc2cnc(-c3ccc(C(C)(C)N)cc3)c(-c3ccsc3)c2)CC1 [Example A67, Methyl (trans-4-(2-((6-(4-(2-aminopropan-2-yl)phenyl)-5-(thiophen-3-yl)pyridin-3-yl)amino)-2-oxoethyl)cyclohexyl)(methyl)carbamate] |
| 8500 | 110 | 5 | 1600 | 230 | 6 | CCN(C(=O)OC)[C@H]1CC[C@H](CC(=O)Nc2cnc(-c3ccc([C@]4(N)C[C@](C)(O)C4)cc3)c(-c3ccccc3)c2)CC1 [Example 118, Methyl (trans-4-(2-((6-(4-(trans-1-amino-3-hydroxy-3-methylcyclobutyl)phenyl)-5-phenylpyridin-3-yl)amino)-2-oxoethyl)cyclohexyl) (ethyl)carbamate] |
| 2600 | 140 | 5 | > 19000 | 830 | 8 | COC(=O)N(C)[C@H]1CC[C@H](CC(=O)Nc2cc(-c3ccsc3)c(-c3ccc([C@]4(N)C[C@](C)(O)C4)cc3)nn2)CC1 [Example 84, Methyl (trans-4-(2-((6-(4-(trans-1-amino-3-hydroxy-3-methylcyclobutyl)phenyl)-5-(thiophen-3-yl)pyridazin-3-yl)amino)-2-oxoethyl)cyclohexyl)(methyl)carbamate] |
| 1400 | 50 | 4 | 1600 | 380 | 24 | COC(=O)N(C)[C@H]1CC[C@H](CC(=O)Nc2cc(-c3ccccc3)c(-c3ccc([C@]4(N)C[C@](C)(O)C4)cc3)nn2)CC1 [Example 59, Methyl (trans-4-(2-((6-(4-(trans-1-amino-3-hydroxy-3-methylcyclobutyl)phenyl)-5-phenylpyridazin-3-yl)amino)-2-oxoethyl)cyclohexyl)(methyl)carbamate] |
| > 16000 | 380 | 16 | > 30000 | 5000 | 310 | COC(=O)N(C)[C@H]1CC[C@H](CC(=O)Nc2cc(-c3ccccc3)c(-c3ccc(C4(N)CCC4)cc3)nn2)CC1 [Example A55, Methyl (trans-4-(2-((6-(4-(1-aminocyclobutyl)phenyl)-5-phenylpyridazin-3-yl)amino)-2-oxoethyl)cyclohexyl)(methyl)carbamate] |
